Laboratory results published in patent US20190070128A1, “USE OF CANNABIDIVARIN IN THE TREATMENT OF AUTISM SPECTRUM DISORDER, ASSOCIATED DISORDERS AND SCHIZOPHRENIA” (GW Research Limited, priority 2016, published 2019).

Key:
MeCP2 KO mice [1] = assay: body weight gain in MeCP2 KO and WT mice; type: in vivo, mouse
Experimental: CBDV was administered daily at the dose of 2, 20 and 200 mg/kg i.p. starting from PND 28 and the following signs were scored every other day: hindlimb clasping (indication of motor imbalance), tremor, gait (measure of coordination), breathing, mobility and general condition.
The CBDV was dissolved in ethanol, cremophor and saline (1:1:18).
Starting from PND 28, mice received a daily intraperitoneal injection of CBDV (or vehicle) at the dose of 2, 20 and 200 mg/kg. Animals were then scored every other day to evaluate the effect of CBDV treatment on motor symptoms (hindlimb clasping, gait, mobility) as well as neurological signs and general conditions (breathing abnormalities, tremors and general condition) present in MeCP2 knockout (KO) mice.

MeCP2 KO mice [2] = assay: Novel Object Recognition (NOR) test in MeCP2 KO mice; type: in vivo, mouse
Experimental: Furthermore, the efficacy of CBDV in reverting/attenuating the short- and long-term memory deficits present in these mice was evaluated. The Novel Object Recognition (NOR) test was performed before the starting of the treatment Post Natal Day 28 (PND 28), at PND 41 when the first motor symptoms appear and at PND 56 and 66 when the disease is fully manifested.
At PND 28, 41, 56 and 66 the effect of CBDV on short- and long-term memory deficits was investigated through the Novel Object Recognition (NOR) test.
The experimental apparatus used for the Novel Object Recognition test was an open-field box (43×43×32 cm) made of Plexiglas, placed in a dimly illuminated room. Animals performed each test individually.
Briefly, each animal was placed in the arena and allowed to explore two identical previously unseen objects for 10 minutes (familiarization phase). After an inter-trial interval of 30 minutes and 24 hours one of the two familiar objects was replaced by a novel, previously unseen object and mice were returned to the arena for the 10-minute test phase.
During the test phase the time spent exploring the familiar object (Ef) and the new object (En) was recorded separately by two observers blind to the groups and the discrimination index was calculated as follows: [(En−Ef)/(En+Ef)]×100.

Ube3am-/p+ (AS) mice [3] = assay: clasping test in Angelman syndrome mice; type: in vivo, mouse; settings: chronic treatment (30 days), 20 mg/kg i.p., 10 weeks of age, vs AS vehicle
Experimental: (§1) Heterozygous mice with maternal deficiency of Ube3A (Ube3am−/p+) and wild type (Ube3am+/p+) were purchased from The Jackson Laboratory (Jackson code: B6.12957-Ube3a tm1Alb/J) and maintained in a C57BL/6 background.
(§2) Drugs were dissolved in 1:1:18 ethanol:cremophor:0.9% saline, for intraperitoneal (i.p.) administration. Drug treatment was performed daily for 35 days. CBDV was administered at 20 mg/kg.
Clasping: The clasping test assesses ataxia in mice. Mice were suspended by the base of the tail and their behaviours were recorded for 30 seconds. The time for which the mice clasped their hind limbs was recorded. The time was then scored as follows: 4, 15-30 s, 3, 10-15 s, 2, 5-10 s, 1, 0-5 s and 0.0 s

Ube3am-/p+ (AS) mice [4] = assay: novel object recognition in Angelman syndrome mice; type: in vivo, mouse; settings: 20 mg/kg i.p., age 7-8 weeks, vs AS vehicle
Experimental: as §1, §2
Novel Object Recognition: The novel object recognition assesses recognition memory in mice. The experiment started with the habituation period, during which mice were allowed to freely explore for 1 hour the apparatus which consists of a rectangular open box (40×30×30 cm width×length×height) made of grey polyvinyl chloride (PVC) illuminated by a dim light. The day after each mouse was allowed to explore two identical objects positioned in the back left and right corners for 5 min (acquisition). A video camera recorded the time spent on exploration of each object. […] The behaviour of mice was analyzed by an observer blind to the treatment. Data are expressed as percentage of recognition index (RI %), which was calculated as the percentage of the time spent exploring the novel object/time spent exploring the novel object+time spent exploring the familiar object×100.

PCP-treated rats = assay: novel object recognition test in sub-chronic PCP treated rats; type: in vivo, rat
Experimental: Female hooded-Lister rats were used for this experiment. Rats were housed in groups of 5 under standard laboratory conditions under a 12 hr light: dark cycle, lights on at 0700 hr. Testing was carried out in the light phase.
Rats were randomly assigned to two treatment groups and treated with vehicle, n=20 (distilled water, i.p.) or Phencyclidine hydrochloride (PCP), n=100 (2 mg/kg, i.p. twice daily for 7-days). PCP was dissolved in distilled water. This was followed by a 7-day wash out period before the rats were tested following acute treatment with CBDV, risperidone or vehicle.
Risperidone (0.1 mg/kg) was dissolved in a minimum volume of acetic acid, made up to volume with distilled water and pH adjusted to 6 with 0.1M NaOH and administered via the i.p. route in a volume of 1 ml/kg, 60 min prior to testing.
CBDV at 2, 10 or 20 mg/kg was dissolved in 2:1:17 (Ethanol:Cremofor:Saline 0.9%) and administered via the i.p. route in a volume of 5 ml/kg, 60 min prior to testing.
Rats were allowed to habituate to the empty test box and the behavioural test room environment for 1 h on day 1. Prior to behavioural testing on day 2 rats are given a further 3 min habituation.
Following the 3 min habituation period, the rats are given two 3 min trials (T1 and T2) which are separated by a 1 min inter-trial interval in the home cage during which the objects are changed. Behaviour in all trials was recorded on video for subsequent blind scoring.
In this trial, the animals are allowed to explore two identical objects (A1 and A2) for 3 min.
In this trial, the animals explore a familiar object (A) from T1 and a novel object (B) for 3 min. The familiar object presented during T2 is a duplicate of the object presented in T1 in order to avoid any olfactory trails.
The object exploration is defined by animals licking, sniffing or touching the object with the forepaws whilst sniffing, but not leaning against, turning around, standing or sitting on the object. The exploration time (s) of each object (A, B, familiar and novel) in each trial are recorded using two stopwatches and the following factors are calculated: • Total exploration time of both objects in the acquisition trial (s). • Total exploration time of both objects in the retention trial (s). • Habituation of exploratory activity includes the exploration time, as measured by the number of lines crossed, for both the trials. • Discrimination index (DI), which is calculated as shown below: […]

C=C(C)[C@@H]1CCC(C)=C[C@H]1c1c(O)cc(CCC)cc1O [CBDV, Cannabidivarin]
body weight (area under the curve) (MeCP2 KO mice [1]; MeCP2 KO mice): significantly rescued
reduction in body weight (MeCP2 KO mice [1]; MeCP2 KO mice, 2, 20 and 200 mg/kg i.p. daily, PND 28-66): partially prevent
body weight (area under the curve) (MeCP2 KO mice [1]; WT controls): without affecting
cognitive impairment in short-term memory (MeCP2 KO mice [2]; MeCP2 KO mice, 2, 20 and 200 mg/kg, each time point (PND 41, 56, 66), 30 minutes interval): significantly reverted
cognitive impairment in long-term memory (MeCP2 KO mice [2]; MeCP2 KO mice, all three doses, 24 hours interval): significantly counteract
recognition memory (long-term) (MeCP2 KO mice [2]; WT littermates): without affecting
recognition memory (short-term) (MeCP2 KO mice [2]; WT littermates): without affecting
clasping duration (Ube3am-/p+ (AS) mice [3]): significantly reduced
discrimination index (Ube3am-/p+ (AS) mice [4]): significantly increased
discrimination index (DI) (PCP-treated rats; PCP rats, 10 and 20 mg/kg): statistically significant increase
preference between two identical objects, Trial 1 (acquisition) (PCP-treated rats; PCP rats, CBDV 2, 10 or 20 mg/kg i.p., risperidone 0.1 mg/kg i.p., 60 min prior to testing): no real preference
cognitive dysfunction (discrimination between familiar and novel objects, Trial 2) (PCP-treated rats; PCP treated rats, CBDV 10 and 20 mg/kg i.p.): reverse
